In brackets after ≈: the same amount, converted by molar mass.
Tests used:
[1] = Inhibition of Staphylococcus aureus TyrRS expressed in Escherichia coli BL21 using L-[ring-3,5-3H]-tyrosine preincubated for 10 mins by liquid scintillation counting
Bacillus spizizenii = assay: Antimicrobial activity against Bacillus subtilis ATCC 6633 after 18 hrs by broth microdilution method; type: functional; details: ATCC 6633, 18 h
Escherichia coli = assay: Antimicrobial activity against Escherichia coli ATCC 35218 after 18 hrs by broth microdilution method; type: functional; details: ATCC 35218, 18 h
Pseudomonas aeruginosa = assay: Antimicrobial activity against Pseudomonas aeruginosa ATCC 13525 after 18 hrs by broth microdilution method; type: functional; details: ATCC 13525, 18 h
[2] = Hemolytic activity in human erythrocytes assessed as hemoglobin release after 3 hrs by spectrophotometric analysis; type: ADME, cell-based, Erythrocyte; details: read-out: LC50
Staphylococcus aureus = assay: Antimicrobial activity against Staphylococcus aureus ATCC 6538 after 18 hrs by broth microdilution method; type: functional; details: ATCC 6538, 18 h
[3] = Cytotoxicity against human macrophages after 24 hrs by MTT assay; type: cell-based, Macrophage

| SMILES | IC50 [1] | MIC (Bacillus spizizenii) | MIC (Escherichia coli) | MIC (Pseudomonas aeruginosa) | HC50 at 3 h [2] | MIC (Staphylococcus aureus) | CC50 at 24 h [3] |
| --- | --- | --- | --- | --- | --- | --- | --- |
| Cc1ncc([N+](=O)[O-])n1CCOC(=O)c1ccccc1OCc1ccccc1 | 5.6 µM | 12.5 µg/mL (≈ 32.8 µM) | 25 µg/mL (≈ 65.6 µM) | 50 µg/mL (≈ 131 µM) | > 10 µM | 12.5 µg/mL (≈ 32.8 µM) | 231 µM |
| Cc1ncc([N+](=O)[O-])n1CCOC(=O)c1ccccc1OCc1ccccc1F | 6.7 µM | 25 µg/mL (≈ 62.6 µM) | 50 µg/mL (≈ 125 µM) | 50 µg/mL (≈ 125 µM) | > 10 µM | 12.5 µg/mL (≈ 31.3 µM) | 155 µM |
| Cc1ncc([N+](=O)[O-])n1CCOC(=O)c1ccccc1OCc1cccc(F)c1 | 6.3 µM | 25 µg/mL (≈ 62.6 µM) | 50 µg/mL (≈ 125 µM) | 50 µg/mL (≈ 125 µM) | > 10 µM | 12.5 µg/mL (≈ 31.3 µM) | 124 µM |
| Cc1ncc([N+](=O)[O-])n1CCOC(=O)c1ccccc1OCc1ccc(F)cc1 | 5.7 µM | 12.5 µg/mL (≈ 31.3 µM) | 25 µg/mL (≈ 62.6 µM) | 25 µg/mL (≈ 62.6 µM) | > 10 µM | 12.5 µg/mL (≈ 31.3 µM) | 157 µM |
| Cc1ncc([N+](=O)[O-])n1CCOC(=O)c1ccccc1OCc1ccccc1Cl | 4.7 µM | 6.25 µg/mL (≈ 15 µM) | 6.25 µg/mL (≈ 15 µM) | 12.5 µg/mL (≈ 30.1 µM) | > 10 µM | 6.25 µg/mL (≈ 15 µM) | 213 µM |
| Cc1ncc([N+](=O)[O-])n1CCOC(=O)c1ccccc1OCc1cccc(Cl)c1 | 5 µM | 6.25 µg/mL (≈ 15 µM) | 12.5 µg/mL (≈ 30.1 µM) | 12.5 µg/mL (≈ 30.1 µM) | > 10 µM | 6.25 µg/mL (≈ 15 µM) | 188 µM |
| Cc1ncc([N+](=O)[O-])n1CCOC(=O)c1ccccc1OCc1ccc(Cl)cc1 | 4.8 µM | 12.5 µg/mL (≈ 30.1 µM) | 25 µg/mL (≈ 60.1 µM) | 12.5 µg/mL (≈ 30.1 µM) | > 10 µM | 6.25 µg/mL (≈ 15 µM) | 168 µM |
| Cc1ncc([N+](=O)[O-])n1CCOC(=O)c1ccccc1OCc1ccc(Br)cc1 | 4.9 µM | 6.25 µg/mL (≈ 13.6 µM) | 12.5 µg/mL (≈ 27.2 µM) | 12.5 µg/mL (≈ 27.2 µM) | > 10 µM | 6.25 µg/mL (≈ 13.6 µM) | 198 µM |
| Cc1ccc(COc2ccccc2C(=O)OCCn2c([N+](=O)[O-])cnc2C)cc1 | 4.7 µM | 3.13 µg/mL (≈ 7.92 µM) | 12.5 µg/mL (≈ 31.6 µM) | 12.5 µg/mL (≈ 31.6 µM) | > 10 µM | 3.13 µg/mL (≈ 7.92 µM) | 140 µM |
| Cc1cc(C)cc(COc2ccccc2C(=O)OCCn2c([N+](=O)[O-])cnc2C)c1 | 3 µM | 1.57 µg/mL (≈ 3.83 µM) | 6.25 µg/mL (≈ 15.3 µM) | 12.5 µg/mL (≈ 30.5 µM) | > 10 µM | 3.13 µg/mL (≈ 7.64 µM) | 252 µM |
| Cc1ncc([N+](=O)[O-])n1CCOC(=O)c1ccccc1OCc1ccc(C(C)C)cc1 | 3.3 µM | 3.13 µg/mL (≈ 7.39 µM) | 6.25 µg/mL (≈ 14.8 µM) | 6.25 µg/mL (≈ 14.8 µM) | > 10 µM | 3.13 µg/mL (≈ 7.39 µM) | 272 µM |
| COc1ccc(COc2ccccc2C(=O)OCCn2c([N+](=O)[O-])cnc2C)cc1 | 2.9 µM | 0.78 µg/mL (≈ 1.9 µM) | 6.25 µg/mL (≈ 15.2 µM) | 6.25 µg/mL (≈ 15.2 µM) | > 10 µM | 1.57 µg/mL (≈ 3.82 µM) | 239 µM |
| Cc1ncc([N+](=O)[O-])n1CCOC(=O)c1ccccc1OCc1ccccc1C(F)(F)F | 7.8 µM | 50 µg/mL (≈ 111 µM) | 100 µg/mL (≈ 223 µM) | 100 µg/mL (≈ 223 µM) | > 10 µM | 100 µg/mL (≈ 223 µM) | 233 µM |
| Cc1ncc([N+](=O)[O-])n1CCOC(=O)c1ccccc1OCc1cccc(C(F)(F)F)c1 | 8.3 µM | 100 µg/mL (≈ 223 µM) | 100 µg/mL (≈ 223 µM) | 100 µg/mL (≈ 223 µM) | > 10 µM | 50 µg/mL (≈ 111 µM) | 251 µM |
| Cc1ncc([N+](=O)[O-])n1CCOC(=O)c1ccccc1OCc1ccc(C(F)(F)F)cc1 | 6.3 µM | 25 µg/mL (≈ 55.6 µM) | 50 µg/mL (≈ 111 µM) | 50 µg/mL (≈ 111 µM) | > 10 µM | 25 µg/mL (≈ 55.6 µM) | 242 µM |
| Cc1ncc([N+](=O)[O-])n1CCOC(=O)c1ccccc1OCc1c(F)cccc1F | 6.9 µM | 25 µg/mL (≈ 59.9 µM) | 50 µg/mL (≈ 120 µM) | 50 µg/mL (≈ 120 µM) | > 10 µM | 25 µg/mL (≈ 59.9 µM) | 277 µM |
| Cc1ncc([N+](=O)[O-])n1CCOC(=O)c1ccccc1OCc1ccc(F)c(F)c1 | 6 µM | 50 µg/mL (≈ 120 µM) | 100 µg/mL (≈ 240 µM) | 100 µg/mL (≈ 240 µM) | > 10 µM | 25 µg/mL (≈ 59.9 µM) | 256 µM |
| Cc1ncc([N+](=O)[O-])n1CCOC(=O)c1ccccc1OCc1ccc(Cl)c(Cl)c1 | 2.3 µM | 0.78 µg/mL (≈ 1.73 µM) | 3.13 µg/mL (≈ 6.95 µM) | 1.57 µg/mL (≈ 3.49 µM) | > 10 µM | 0.39 µg/mL (≈ 0.866 µM) | 188 µM |
| Cc1ncc([N+](=O)[O-])n1CCOC(=O)c1ccccc1OCc1cc(Cl)ccc1Cl | 2.7 µM | 0.78 µg/mL (≈ 1.73 µM) | 3.13 µg/mL (≈ 6.95 µM) | 6.25 µg/mL (≈ 13.9 µM) | > 10 µM | 1.57 µg/mL (≈ 3.49 µM) | 193 µM |
| Cc1ncc([N+](=O)[O-])n1CCOC(=O)c1ccccc1OCc1ccc(Cl)c(F)c1 | 3.2 µM | 3.13 µg/mL (≈ 7.21 µM) | 6.25 µg/mL (≈ 14.4 µM) | 6.25 µg/mL (≈ 14.4 µM) | > 10 µM | 3.13 µg/mL (≈ 7.21 µM) | 180 µM |
| Cc1ncc([N+](=O)[O-])n1CCOC(=O)c1ccccc1OCc1cccc(Cl)c1F | 2.9 µM | 1.57 µg/mL (≈ 3.62 µM) | 12.5 µg/mL (≈ 28.8 µM) | 6.25 µg/mL (≈ 14.4 µM) | > 10 µM | 3.13 µg/mL (≈ 7.21 µM) | 190 µM |
| Cc1ncc([N+](=O)[O-])n1CCOC(=O)c1ccccc1OCc1cc(F)c(F)c(F)c1 | 6.7 µM | 25 µg/mL (≈ 57.4 µM) | 100 µg/mL (≈ 230 µM) | 50 µg/mL (≈ 115 µM) | > 10 µM | 25 µg/mL (≈ 57.4 µM) | 267 µM |
| Cc1ncc([N+](=O)[O-])n1CCOC(=O)c1ccccc1OCc1c(F)c(F)c(F)c(F)c1F | 8 µM | 50 µg/mL (≈ 106 µM) | 100 µg/mL (≈ 212 µM) | 100 µg/mL (≈ 212 µM) | > 10 µM | 50 µg/mL (≈ 106 µM) | 236 µM |
| O=C(N[C@H](CO)[C@H](O)c1ccc([N+](=O)[O-])cc1)C(Cl)Cl [CHLORAMPHENICOL] |  | 1.57 µg/mL (≈ 4.86 µM) | 6.25 µg/mL (≈ 19.3 µM) | 0.78 µg/mL (≈ 2.41 µM) |  | 1.57 µg/mL (≈ 4.86 µM) |  |
| CC1(C)S[C@@H]2[C@H](NC(=O)Cc3ccccc3)C(=O)N2[C@H]1C(=O)O [PENICILLIN G] |  | 0.78 µg/mL (≈ 2.33 µM) | 6.25 µg/mL (≈ 18.7 µM) | 6.25 µg/mL (≈ 18.7 µM) |  | 0.78 µg/mL (≈ 2.33 µM) |  |
